Experimental findings from publication PMC2409616 (British Journal of Cancer, 2004) are described below.

For data set [1], the system named is V79^puro cells (NTR−ve).
For data set [2], the system named is V79-NTR^puro cells.
Data set [3] concerns UV4. In words: cells. The settings on record: Cricetulus griseus, UV4, 4 h, read-out: IC50 following 4 h drug exposure.
The test system of data set [4] is AA8. The data set can be described thus: cells. The settings on record: Cricetulus griseus, CHO-AA8, 4 h, read-out: IC50 following 4 h drug exposure.
The subject of data set [5] is SiHa cells. The data set can be described thus: Metabolic consumption of prodrug in stirred single-cell suspensions (loss from extracellular medium). The settings on record: corrected to 10^6 cells ml^−1, mean±s.e.m., 2–3 cell suspensions.
For data set [6], the system named is V79^puro. The data set can be described thus: cells. The settings on record: Cricetulus griseus, 4 h, read-out: IC50 following 4 h drug exposure.
The subject of data set [7] is UV4 cells.
Data set [8] concerns SiHa. The data set can be described thus: cells. Conditions: Homo sapiens, 4 h, read-out: IC50 following 4 h drug exposure.
The subject of data set [9] is WiDr. The data set can be described thus: cells. Conditions: Homo sapiens, 4 h, read-out: IC50 following 4 h drug exposure.
Data set [10] deals with SiHa-NTR^puro cells. In words: Metabolic consumption of prodrug in stirred single-cell suspensions (loss from extracellular medium). Conditions: corrected to 10^6 cells ml^−1, mean±s.e.m., 2–3 cell suspensions.
For data set [11], the system named is UV4.
In data set [12] the test system is SiHa-NTR^puro MCLs.
The test system of data set [13] is SiHa MCLs. In words: Transport through multicellular layers (two-chamber diffusion apparatus). The settings on record: 100 μM in donor compartment.

Values joined by “and” are separate entries in the source; they are usually repeats but may differ in a detail not shown here. Equal entries are not always repeated. Where two headings read alike, the source gives them in different places. Where only a bound is given, the exact number is not on record here.

For orientation: IC50 means the midpoint of a concentration-inhibition curve.

With `NC(=O)c1cc(N2CC2)c([N+](=O)[O-])cc1[N+](=O)[O-]` [compound 1, 5-(aziridin-1-yl)-2,4-dinitrobenzamide, reference compound], the “First-order rate constant k of metabolic consumption” value in data set [1] (Chinese hamster) was 0.0010 ± 0.0004 h⁻¹; in data set [2] (Chinese hamster), 0.08 ± 0.03 h⁻¹; in data set [5], 0.0066 ± 0.0001 h⁻¹; in [10], 0.22 ± 0.06 h⁻¹. The concentration for half-maximal inhibition (IC50) in data set [3] worked out at 135 ± 28 µM; in data set [4] it was 2480 ± 260 µM; in [6] it was 2950 ± 113 µM; in data set [8], 277 ± 36 µM; in data set [9], 485 ± 34 µM. The “Bioactivity of HPLC fraction against UV4 cells” value (“Bioactivity of HPLC fraction” for short) in [7] (extracellular medium of V79-NTR^puro suspensions (5 × 10^6 ml^−1, 3 h) with CB 1954) is “weak cytotoxicity”.
With `NC(=O)c1cc(N2CC2)c([N+](=O)[O-])cc1NO` [compound 2], the results for the half-maximal inhibitory concentration (IC50) in data set [3] and in [4] were 6.3 µM and 22 µM, respectively. The “AA8/UV4 intra-experiment IC50 ratio” value in data set [11] is listed as 3.4. In addition, the “Appearance of metabolite in donor and receiver compartments” value (shortened to “Appearance of metabolite”) in [12] is recorded as “not detected in either compartment”. In addition, the “Bioactivity of HPLC fraction” value in data set [7] is reported as “significant cytotoxicity”.
In the case of `NC(=O)c1cc(N2CC2)c([N+](=O)[O-])cc1N` [compound 3], the IC50 in data set [3] was 3.7 ± 0.7 µM; in data set [4] it was 28 ± 8 µM; in data set [6], 56 ± 7 µM; in [8], 7.9 ± 3.3 µM; in data set [9], 21 ± 3 µM. The “Appearance of metabolite” value in data set [12] is recorded as “accumulated in both compartments”. Further, the “Initial flux of metabolite” value in data set [12] (human) is about 0.2 µM/h. In addition, the “Bioactivity of HPLC fraction” value in data set [7] is listed as “significant cytotoxicity”.
With `NC(=O)c1cc(N2CC2)c(NO)cc1[N+](=O)[O-]` [compound 4, 5-(aziridin-1-yl)-4-hydroxylamino-2-nitrobenzamide], the half-maximal inhibitory concentration (IC50) in data set [3] amounted to 0.62 ± 0.05 µM; in [4] it was 39 ± 6 µM; in [6], 6.9 ± 0.6 µM; in [8], 45 ± 9 µM; in [9], 26 ± 5 µM. Moreover, the “AA8/UV4 intra-experiment IC50 ratio” value in [11] was 63 and 63±5. Also, the “Fold less potent in the four repair competent cell lines than in UV4” value in [11] is 11–70 fold. For the same compound, the “Appearance of metabolite” value in data set [12] is on record as “not detected at all in the receiver compartment”. Also, in data set [7], the “Bioactivity of HPLC fraction” value was “greatest activity”. For the same compound, the “Appearance in the receiver compartment in the presence of an MCL vs bare support membrane” value in data set [13] is given as “greatly reduced”.
With `NC(=O)c1cc(N2CC2)c(N)cc1[N+](=O)[O-]` [compound 5], the IC50 in data set [3] amounted to 47 ± 5 µM; in [4], 62 ± 12 µM; in data set [6] it was 238 ± 6 µM; in [8], 163 ± 39 µM; in [9], 141 ± 34 µM. Further, the “AA8/UV4 intra-experiment IC50 ratio” value in data set [11] is recorded as 1.2±0.1. The “Appearance of metabolite” value in data set [12] is on record as “accumulated in both compartments”. In addition, in data set [7], the “Bioactivity of HPLC fraction” value is listed as “significant cytotoxicity”.
Turning to `NC(=O)c1cc(N(CCCl)CCCl)c([N+](=O)[O-])cc1[N+](=O)[O-]` [compound 7, 5-[N,N-bis(2-chloroethyl)amino]-2,4-dinitrobenzamide], the “First-order rate constant k of metabolic consumption” value in [1] (V79^puro, corrected to 10^6 cells ml^−1, mean±s.e.m., 2–3 cell suspensions) is 0.0020 ± 0.0001 h⁻¹; in [2] (V79-NTR^puro, corrected to 10^6 cells ml^−1, mean±s.e.m., 2–3 cell suspensions), 0.17 ± 0.003 h⁻¹; in data set [5] it was under 0.001 h⁻¹; in data set [10], 0.6 ± 0.2 h⁻¹. Also, the IC50 in data set [3] was 761 ± 89 µM; in data set [4] it was about 1000 µM; in data set [6], over 500 µM; in [8], over 800 µM; in [9], over 1000 µM. The “AA8/UV4 intra-experiment IC50 ratio” value in data set [11] is “ca 1.3”.
For the compound `NC(=O)c1cc(N(CCCl)CCCl)c([N+](=O)[O-])cc1NO` [compound 8], the half-maximal inhibitory concentration (IC50) was 0.045 ± 0.001 µM in [3]; 2.3 ± 0.1 µM in [4]; 1.74 ± 0.23 µM in [6]; 2.07 ± 0.08 µM in data set [8]; 1.2 ± 0.1 µM in data set [9]. Moreover, the “AA8/UV4 intra-experiment IC50 ratio” value in [11] is listed as 51±1.
